According to patent publication US9131722B2, “Composition comprising the extract of Actinidia arguta and related species for the prevention and treatment of allergic disease and non-allergic inflammatory disease” (VIROMED CO., LTD., priority 2002, dated 2015):

What was measured:
[1] = tested on: mice peritoneal mast cells; assay: Inhibition of histamine release from mice peritoneal mast cells; assay type: cell-based; settings: Mus musculus, Mast cell, 0.5 h; anti-DNP24-BSA IgE sensitized, DNP24-BSA 20 ng/ml 30 min; extract 100 μg/ml, Cromolyn 10^−4 M
Experimental: Each mouse was anesthetized with ether, and injected with 20 ml of Tyrode buffer B (NaCl, glucose, NaHCO3, KCl, NaH2PO4) containing 0.1% gelatin into the peritoneal cavity; then the abdomen was gently massaged for about 90 seconds. The peritoneal cavity was carefully opened, and the fluid containing peritoneal cells was aspirated by pasteur pipette. The peritoneal cells were then sedimented at 150×g for 10 min. at room temperature and resuspended in Tyrode buffer B. Mast cells were separated from the major components of rat peritoneal cells as described in the literature (Yurt et al., J Exp Med., 1; 146(5), pp 1405-19, 1977). Peritoneal cells suspended in 1 ml of Tyrode buffer B were layered onto 2 ml of 0.225 g/ml metrizamide (density 1.120 g/ml) and centrifuged at room temperature for 15 min at 400×g. […] Mast cells were stimulated with 20 ng/ml of DNP24-BSA as an antigen for 30 min., and histamine released into the medium was measured by […]). Inhibition of histamine release was calculated as following empirical formula 1; Percent inhibition=100×(A-B)/(A-C) [Empirical Formula 1] • A: Stimulated level (Histamine release with IgE-stimulation). • B: Suppressed level (Histamine release with IgE-stimulation and drug treatment). • C: Basal level (Histamine release without IgE-stimulation).

U266B1 cell line = assay: Inhibition of IgE production in LPS-stimulated U266B1 cell line (ELISA); assay type: cell-based, human; settings: 7 days
[2] = tested on: splenocytes of ovalbumin-sensitized mouse; assay: Ovalbumin-sensitized mouse model: expression of cytokines by splenocytes re-stimulated with ovalbumin (ELISA); assay type: in vivo; settings: splenocytes of OVA-stimulated mouse, ovalbumin 100 μg/ml, 3 days
Experimental: The ovalbumin-sensitized mouse model is commonly used as animal model of allergy. Female BALB/c mice, aged 6 weeks (Seoul national university animal experimental center) were adapted to the environment for 7 days.
On the 25th day, mice were sacrificed and blood serum and spleen was collected therefrom.
Each prepared splenocytes was pooled and homogenized under an aseptic condition.
Splenocytes prepared as above were inoculated in 24-well plate (5×10^6 cell/ml/well), treated with 100 μg/ml of ovalbumin, and incubated at 37° C. under an atmosphere containing 5% CO2 for 3 days. After cultivation was finished, a culture solution was gathered and then the concentration of cytokines (IL-4, IL-5, IL-12 and interferon-γ) related to allergy were measured by commercial ELISA kits.

[3] = tested on: splenocytes of Nc/Nga mouse; assay: Nc/Nga mouse model: Th1/Th2 cytokine production by ConA-stimulated splenocytes; assay type: in vivo; settings: ConA 1 μg/ml, 3 days
Experimental: For experiment, 15 of Nc/Nga mice (7 weeks after birth, female) were divided into 3 groups and adapted to new circumstance for 1 week. […] To compare the progress of dermatitis symptom, the scratching frequency of mouse (the time spent scratching during 20 min-observation) was measured when mice is grown at the age of 12 and 14 weeks. 16 weeks old mouse was sacrificed and the quantity of IgE, IgG1 and IgG2a level in serum were measured by ELISA method. Also, to compare the production of Th1/Th2 cytokines, splenocyte was prepared by conventional method from each mouse, transferred into 24-well plate (5×10^6 cells/ml/well) and incubated with ConA (1 μg/ml) for 3 days and then the levels of IL-4, IL-5, IL-12, and Interferon-γ were measured by ELISA method.

[4] = tested on: ovalbumin-sensitized mouse; assay: Ovalbumin-sensitized mouse model: ovalbumin-specific IgE, IgG1, IgG2a, IgG2b in serum (ELISA); assay type: in vivo; settings: BALB/c, oral 11 days, extract 300 μg/mouse/day, dexamethasone 10 μg/mouse/day
Experimental: The ovalbumin-sensitized mouse model is commonly used as animal model of allergy. Female BALB/c mice, aged 6 weeks (Seoul national university animal experimental center) were adapted to the environment for 7 days. At the time of 7 weeks after birth, 100 μl of emulsion, mixed 25 μg of ovalbumin (chicken egg albumin, crude grade V, Sigma Co., Ltd.) with 2.25 mg of aluminum hydroxide (ImujectAlum, Pierce Co., Ltd.) was injected into mouse peritoneal cavity and 14 days after, it was injected once more for boosting.
And then 30 mice were divided into 3 groups and each group was orally administered with the hardy kiwifruit water extract of Example 1-1 (300 μg/mouse/day), dexamethasone (10 μg/mouse/day), or drinking water (100 μg/mouse/day) for 11 days, respectively. On the 25th day, mice were sacrificed and blood serum and spleen was collected therefrom.
In serum collected in Example 2-1, the serum levels of ovalbumin-specific IgE, IgG1, IgG2a and IgG2b were measured by ELISA kits (PharMingen Co., Ltd).

Nc/Nga mouse = Nc/Nga mouse model of atopic dermatitis: scratching and serum IgE, IgG1, IgG2a; assay type: in vivo; settings: oral 8 weeks, extract 300 μg/mouse/day, dexamethasone 10 μg/mouse/day, 16 weeks old
Experimental: To confirm anti-allergic effect of hardy kiwifruit extract in animals, Nc/Nga mouse model that has been widely used as an animal model for human atopic dermatitis study was employed.
For experiment, 15 of Nc/Nga mice (7 weeks after birth, female) were divided into 3 groups and adapted to new circumstance for 1 week. Since 8 weeks after birth, the hardy kiwifruit extract (300 μg/mouse/day) prepared in example 1-1 as a treatment group had been orally administered and dexamethasone (10 μg/mouse/day) or drinking water (100 μg/mouse/day) as control groups had been orally administered for 8 weeks. To compare the progress of dermatitis symptom, the scratching frequency of mouse (the time spent scratching during 20 min-observation) was measured when mice is grown at the age of 12 and 14 weeks. 16 weeks old mouse was sacrificed and the quantity of IgE, IgG1 and IgG2a level in serum were measured by ELISA method. Also, to compare the production of Th1/Th2 cytokines, splenocyte was prepared by conventional method from each mouse, transferred into 24-well plate (5×10^6 cells/ml/well) and incubated with ConA (1 μg/ml) for 3 days and then the levels of IL-4, IL-5, IL-12, and Interferon-γ were measured by ELISA method.

[5] = tested on: edema induced by arachidonic acid in the ears of mice; assay: Edema induced by arachidonic acid in the ears of mice; assay type: in vivo; settings: BALB/c, p.o. 1 hour before arachidonic acid, extract 200 mg/kg, indomethacin 10 mg/kg
Experimental: 15 mice (8 week old male BALB/c) were fasted for 18 hours with free access to water and divided into 3 groups. Inflammation was induced by topical application of arachidonic acid (0.5 mg/20 μl acetone) to the right ear of each mouse. The left ear was used as a negative control and received the vehicle (20 μl acetone). The hardy kiwifruit extract (200 mg/kg in water) was administered p.o. 1 hour prior to arachidonic acid application. The positive control group received indomethacin (10 mg/kg, p.o.) 1 hour before arachidonic acid application. Inflammation was followed for 1 hour and thereafter the animals were sacrificed. A section of 6 mm diameter disc from each ear was obtained and weighed. The edema index was assessed using the increase in the weight of the treated right ear punch biopsy over that of the untreated left ear.

O=C(O)c1cc(=O)c2c(OCC(O)COc3cccc4oc(C(=O)O)cc(=O)c34)cccc2o1 [Cromolyn]
inhibition at 100 µM [1]: 52 ± 13%

C[C@@H]1C[C@H]2[C@@H]3CCC4=CC(=O)C=C[C@]4(C)[C@@]3(F)[C@@H](O)C[C@]2(C)[C@@]1(O)C(=O)CO [Dexamethasone, dexamethasone]
IgE (IU/ml) (U266B1 cell line; U266B1, LPS 2 μg/ml, extracts 100 μg/ml, dexamethasone 2 μM, LPS+medium 392.9, no LPS 187.8): 203.6 ± 30.9 IU/ml | IgE (IU/ml) (U266B1 cell line; U266B1, LPS stimulation, fractions at 30 μg/ml, LPS+medium 212.5, no LPS 117.4): 138.9 ± 2.1 IU/ml | IgE (IU/ml) (U266B1 cell line; U266B1, LPS stimulation, silica gel fractions at 10 μg/ml, LPS+medium 540.4, no LPS 379.7): 277.6 ± 12.4 IU/ml | IL-4 ([2]; drinking water 159.5, normal mouse 21.6): 23.2 ± 8.7 pg/mL | IL-12 ([2]; drinking water 906.2, normal mouse 1626.0): 297.7 ± 16.4 pg/mL | Interferon-γ ([2]; drinking water 1016.0, normal mouse 14.1): 470.5 ± 38.6 pg/mL | IL-5 ([2]; drinking water 2573.6, normal mouse 0.5): 884.1 ± 80.7 pg/mL | IL-4 ([3]; drinking water 151.9): 42.7 ± 19.4 pg/mL | IL-5 ([3]; drinking water 778.3): 646.5 ± 51.7 pg/mL | IL-12 ([3]; drinking water 1925.7): 201.2 ± 12.1 pg/mL | Interferon-γ ([3]; drinking water 10407.5): 10096.4 ± 192.4 pg/mL | ovalbumin-specific IgG2b in serum ([4]; normal 1.0, drinking water 1.4, the values are: IgG2b relative to normal mice): 1.2 ± 0.1 | ovalbumin-specific IgG2a in serum ([4]; normal 1.0, drinking water 2.1, the values are: IgG2a relative to normal mice): 1.9 ± 0.4 | ovalbumin-specific IgG1 in serum ([4]; normal 1.0, drinking water 5.1, the values are: IgG1 relative to normal mice): 3.1 ± 0.3 | ovalbumin-specific IgE in serum ([4]; normal 1.0, drinking water 7.6, the values are: IgE relative to normal mice): 2 ± 0.6 | IgG2a in serum (Nc/Nga mouse; drinking water 177.5): 148.0 ± 14.8 pg/mL | IgG1 in serum (Nc/Nga mouse; drinking water 242.2): 247.3 ± 10.8 pg/mL | IgE in serum (Nc/Nga mouse; drinking water 1572.9): 130.0 ± 55.3 pg/mL

COc1ccc2c(c1)c(CC(=O)O)c(C)n2C(=O)c1ccc(Cl)cc1 [Indomethacin, indomethacin]
Index of edema ([5]; control 7.2 ± 1.1): 1.3 ± 0.3 mg | inhibition at 10 mg/kg ([5]; Mus musculus, po, read-out: Inhibition rate (%)): 81.9%
